Source: US7803381B2, “Retro-inverso gonadotropin-releasing hormone peptide and vaccine composition” (Shimoda Biotech (Pty) Ltd., priority 2002, dated 2010)
Where “and” joins values, the source holds several entries; their conditions need not be identical. Equal entries are not always repeated. Entries after “also recorded” stand apart in the source; their conditions may differ. Non-standard residues stand in square brackets, D forms with d. Residues, ends and D or L forms follow the SMILES beside them. No end group written: not given here. pGlu = O=C1CC[C@@H](C(=O)O)N1

Key:
human GnRH receptor = molecular target: T1, human GnRH receptor (Homo sapiens, UniProt P30968); assay: GnRH analog-stimulated inositol phosphate (IP) accumulation in COS-1 cells transiently transfected with human GnRH receptor; assay type: cell-based
T1 construct: expressed in transfected cells; host or cells: COS-1 cells, transient transfection (DEAE-Dextran), vector pcDNA I/AMP
T1 sequence (P30968 1-328): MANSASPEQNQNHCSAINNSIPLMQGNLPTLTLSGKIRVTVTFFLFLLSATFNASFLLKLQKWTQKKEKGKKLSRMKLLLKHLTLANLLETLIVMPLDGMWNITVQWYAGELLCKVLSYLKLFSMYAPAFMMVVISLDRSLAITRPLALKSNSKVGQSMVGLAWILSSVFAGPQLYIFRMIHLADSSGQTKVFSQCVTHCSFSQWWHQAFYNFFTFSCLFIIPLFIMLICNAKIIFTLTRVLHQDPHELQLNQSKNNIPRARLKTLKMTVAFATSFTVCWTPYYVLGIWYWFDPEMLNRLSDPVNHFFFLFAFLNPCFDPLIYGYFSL
Description: COS-1 cells were cultured in Dulbecco's modified Eagle's medium/DMEM (Life Technologies, Inc., Paisley, Scotland), supplemented with 10% foetal calf serum (FCS, Delta bioproducts, Kempton Park, South Africa) in a 10% CO2 incubator at 37° C. Cells were harvested with 0.05% trypsin. For all transient transfections 2×10^5 cells/well were seeded into 12-well plates and cultured overnight in DMEM containing 10% FCS and antibiotics (2 mg/ml streptomycin sulphate, 4000 U/ml sodium benzyl penicillin). COS-1 cells were transiently transfected using the DEAE-Dextran method, as previously described.
The transfected COS-1 cells (2×10^5 cells/well) were incubated overnight in 0.5 ml Medium 199 (Life Technologies Inc.) with antibiotics and myo-[2-^3H] inositol (1 μCi/well, Amersham Pharmacia Biotech) as previously described. […] Aspirating the medium and addition of 10 mM formic acid (1 ml/well) terminated the incubation. Inositol phosphates separated from the formic acid extract on DOWEX-1 ion exchange columns and eluted into scintillation liquid (Quicksafe, Zinsser Analytical, Frankfurt, Germany) and the radioactivity was counted.
IP assays were performed in duplicate and four-parameter nonlinear curve fitting (PRISM, GraphPad Software, In., San Diego, Calif.) was used to estimate the peptide concentrations required to stimulate half-maximal IP production (EC50). […]

[1] = tested on: purified rabbit anti-RI-GnRH antibodies; assay: Inhibition immunoassay (ELISA): peptide displacement of anti-RI-GnRH antibodies from fixed RI-GnRH; assay type: binding; details: for inhibition by free peptide of anti-RI-GnRH antibody binding to fixed RI-GnRH: ELISA, increasing peptide concentrations
Description: (§1) Microtitre plates were coated with RI-GnRH peptide (5 μg/ml) in 100 mM Na2CO3 (pH=9.6) and incubated for one hour at 37° C. After several washes with PBS (pH=7.4) plates were saturated for one hour with 1% BSA in PBS supplemented with Tween 20 (0.1% wt/volume) at 37° C. Sera from immunised rabbits and mice at different dilutions (1:500 to 1:3200) were added to the plates and incubated for one hour at 37° C. […] Washed plates were reacted with 3,3′,5,5′-tetramethyl benzidine (TMB) and […] as substrate.
(§2) Nonspecific inhibition was determined with an unrelated L peptide, […](V9C), and an unrelated RI peptide ([…]. Various dilutions of anti-RI-GnRH antibodies were preincubated with increasing concentrations of peptide (3.9-1000 nM) for 1 h at 37° C. The percent inhibition of signal was calculated from the amount of anti-RI-GnRH antibodies that bound RI-GnRH in the presence of increasing peptide concentrations against the amount of anti-RI-GnRH antibodies that bound RI-GnRH in the absence of competing peptide.

BALB/c mice = assay: Second mice example: immunisation of BALB/c mice with unconjugated RI-GnRH coinjected with CpG, titre and fertility; assay type: in vivo, mouse; details: for Titre 1 (d 37): individual mice 1-6, without complete Freund's adjuvant
Description: In the second experiment, four week old BALB/c mice (3 of each sex) were immunised with 25 μg/mouse unconjugated RI-GnRH coinjected with CpG (50 μg/mouse) oligonucleotide and m-BSA. A control group (2 of each sex) received saline buffer together with 50 μg/mouse CpG oligonucleotide as adjuvant (Klinman, et al., 1999) supplemented with 200 μg m-BSA. All injections were given in 10% v/v IFA. Mice were immunised at days 1, 15 and 30. They were bled and mated with partners of proven fertility at day 37 after the initial immunisation.
as §1

rabbits = assay: Rabbit immunisation with RI-GnRH conjugated with MAO; assay type: in vivo; details: 100 μg/rabbit conjugated with MAO, CFA then IFA boosters
Description: Two adult female rabbits (Harlan, Leicestershire, UK) were immunised with RI-GnRH (100 μg/rabbit) conjugated with MAO. The primary injections were given subcutaneously in complete Freund's adjuvant (CFA). These were followed by three booster injections (1 ml/rabbit) in incomplete Freund's adjuvant (IFA) at two week intervals. The last booster injection was given four weeks later using 200 μg free peptide together with 1 mg methylated-BSA (m-BSA). The rabbits were bled one week after each injection. Two experiments were performed with mice to test whether immunization with RI-GnRH would generate GnRH antibodies, and different methods of immunization with RI-GnRH were tested.
as §1

male BALB/c mice = assay type: in vivo, mouse
Description: Nine male BALB/c mice (Janvier, France), nine weeks of age, were immunised intraperitoneally (i.p.) with either 25 μg/mouse RI-GnRH conjugated with MAO (n=5) or saline buffer (n=4). The primary injections were given in CFA supplemented with 200 μg m-BSA. These were followed by two-booster injections in IFA and m-BSA at day 15 and 45 after primary injection. The mice were weighed and bled one week after each immunisation. On day 45, males injected with RI-GnRH conjugate or saline were placed with females of proven fertility and litters observed. The males were sacrificed 75 days after primary injection for histological examination.
as §1, §2
Male mice were sacrificed and the testes dissected. Testes were weighed and fixed in formalin/saline solution (12%) for routine histology. The fixed testes were dehydrated, sectioned (5 μm thick) and stained with haematoxylin and eosin.

GnRH [2] = molecular target: T2, GnRH (Homo sapiens, UniProt P01148); assay: Antiserum/antibody inhibition of GnRH stimulated IP accumulation in COS-1 cells transfected with human GnRH receptor; assay type: cell-based, mammalian
T2 construct: made in house; host or cells: chemical solid-phase synthesis (University of Cape Town); receptor expressed in transfected COS-1 cells
Description: (§3) The transfected COS-1 cells (2×10^5 cells/well) were incubated overnight in 0.5 ml Medium 199 (Life Technologies Inc.) with antibiotics and myo-[2-^3H] inositol (1 μCi/well, Amersham Pharmacia Biotech) as previously described. The labelled cells were incubated with various concentrations of GnRH-analogs for one hour at 37° C. in the presence of LiCl as described. Aspirating the medium and addition of 10 mM formic acid (1 ml/well) terminated the incubation. Inositol phosphates separated from the formic acid extract on DOWEX-1 ion exchange columns and eluted into scintillation liquid (Quicksafe, Zinsser Analytical, Frankfurt, Germany) and the radioactivity was counted. […] Serum from the same rabbits before immunisation was also tested. […] After one hour the incubation was terminated with formic acid and inositol phosphates were separated and counted as described. […] The mixture was added to labelled cells, and the inhibition of IP production was calculated. […] Purified anti-RI-GnRH antibodies were tested for their ability to discriminate among GnRH, [[…]]GnRH, and GnRH II. […] Stimulating with these concentrations [half-maximal effective concentrations (EC50)] in the absence of antibody produced similar levels of IP counts. […] The mixture was added to labelled cells and the inhibition of IP production calculated as described. IP assays were performed in duplicate and four-parameter nonlinear curve fitting (PRISM, GraphPad Software, In., San Diego, Calif.) was used to estimate the peptide concentrations required to stimulate half-maximal IP production (EC50). […] All kinetic analysis was performed with BiaEvaluation 3 (BIACORE) software, using the standard χ^2 statistic test. […] All statistical analyses were performed with StatView, using a standard correlation program.

GnRH [3] = assay: as above; assay type: cell-based, mammalian; details: 5 nM antibody fraction; 0.3 nM GnRH, 1 nM [Gln^8]GnRH, 1 nM GnRH II
Description: as §3

RI-GnRH peptide = assay: ELISA binding of purified anti-RI-GnRH antibody fractions to RI-GnRH; details: ELISA titre
Description: as §1

Compound: NC(=O)CNC(=O)[C@@H]1CCCN1C(=O)[C@H](Cc1ccc(O)cc1)NC(=O)[C@H](Cc1c[nH]c2ccccc12)NC(=O)CNC(=O)[C@H](Cc1c[nH]cn1)NC(=O)[C@H](CO)NC(=O)[C@H](Cc1c[nH]c2ccccc12)NC(=O)[C@H](Cc1c[nH]cn1)NC(=O)[C@@H]1CCC(=O)N1 [GnRH II, [His^5, Trp^7, Tyr^8]GnRH, reference compound] ([pGlu]HWSHGWYPG-NH2)
- EC50 (human GnRH receptor; absence of antibody, read-out: EC50 of ligand-stimulated IP accumulation): 1 nM
- inhibition by free peptide of anti-RI-GnRH antibody binding to fixed RI-GnRH [1]: cross-react less

Compound: CC(C)C[C@H](NC(=O)CNC(=O)[C@H](Cc1ccc(O)cc1)NC(=O)[C@H](CO)NC(=O)[C@H](Cc1c[nH]c2ccccc12)NC(=O)[C@H](Cc1c[nH]cn1)NC(=O)[C@@H]1CCC(=O)N1)C(=O)N[C@@H](CCCNC(=N)N)C(=O)N1CCC[C@H]1C(=O)NCC(N)=O [GnRH]
- inhibition by free peptide of anti-RI-GnRH antibody binding to fixed RI-GnRH [1]: could also inhibit

Compound: GPRLGYSWHEC (G[dP][dR][dL]G[dY][dS][dW][dH][dE][dC]; not fully specified) [RI-GnRH, retro-inverso GnRH peptide with additional C-terminal cysteine for conjugation]
- effect of RI-GnRH peptide alone on IP accumulation / GnRH stimulated IP accumulation (human GnRH receptor; data not shown, listed as RI-GnRH peptide): could not stimulate or inhibit; also recorded: did not stimulate or inhibit
- production of anti-RI-GnRH antibodies (BALB/c mice; 25 μg/mouse unconjugated RI-GnRH with CpG 50 μg/mouse, m-BSA, 10% IFA): produced anti-RI-GnRH antibodies, which cross-reacted with the native hormone
- mice infertile until day 220 (BALB/c mice; boosted at day 97): four mice stayed infertile
- infertile mice on day 120 (BALB/c mice; boosted at day 97, mated one week thereafter): Two mice were infertile
- Titre 1 (d 37) (BALB/c mice; female mice): 3.00E−05 and 1.30E−04 and 1.00E−02
- Titre 1 (d 37) (BALB/c mice; male mice): 3.00E−05 and 1.00E−03 and 5.00E−04
- fertility after pairing at day 37 (BALB/c mice; male and female mice paired with normal partners): All mice were infertile after pairing at day 37, except for one
- adverse side effects or changes in body weight (BALB/c mice; mouse, in vivo): no indication of adverse side effects or changes in body weight
- litters from further matings up to day 90 (BALB/c mice; mouse, in vivo): no litters
- anti-RI-GnRH antibody response (rabbits): high titre
- development of anti-RI-GnRH antibodies (male BALB/c mice; 25 μg/mouse conjugated with MAO, i.p., CFA + m-BSA): All five immunised male mice developed anti-RI-GnRH antibodies
- testis histology (male BALB/c mice; males sacrificed 75 days after primary injection): atrophied Leydig and Sertoli cells, less spermatogonia and primary spermatocytes, presence of very few spermatids and reduced diameters of the seminiferous tubules
- infertile immunised male mice (male BALB/c mice; mated with normal females from day 45): Two of the group of five
- adverse side effects or changes in body weight (male BALB/c mice; mouse, in vivo): no indication of adverse side effects or changes in body weight
- testis weight (male BALB/c mice; mouse, in vivo): reduced testis weight
- inhibition by free peptide of anti-RI-GnRH antibody binding to fixed RI-GnRH [1]: incrementally decreased

Compound: KSCN
- IC50 (GnRH [2]; 0.3 nM GnRH, read-out: antibody concentration inhibiting 50% of GnRH-stimulated IP accumulation): 1.7 nM
- inhibition of GnRH (analog) stimulated IP production by eluted antibody fractions (GnRH [3]): most effective
- cross-reaction of eluted antibody fractions with GnRH ([1]; inhibition ELISA): cross-reacted most efficiently

Compound: VRTVEDGEC [V9C, unrelated L peptide]
- inhibition by free peptide of anti-RI-GnRH antibody binding to fixed RI-GnRH [1]: not significantly inhibited; also recorded: low inhibition

Compound: glycine
- fold suppression of EC50 of GnRH-stimulated IP accumulation (GnRH [2]; 5 nM antibody fraction): 4.4 fold
- affinity of antibody populations for RI-GnRH peptide (RI-GnRH peptide): higher affinity than those eluted with KSCN
